PubChem BioAssay AID1259411 (Chemical Carcinogenesis Research Information System (CCRIS), 2018)
Calls of active or inactive are those of the source. No rule for the calls is given here.

Tested on: rodent carcinogenicity bioassays, tumor incidence
Test: CCRIS carcinogenicity studies
Procedure, shortened: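 Archive of carcinogenicity, mutagenicity, tumor promotion and tumor inhibition results drawn from journals, NCI reports and other sources, expert-reviewed; covers 1985-2011 and is no longer updated.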

C=CC
carcinogen call (Species: MOUSE, Strain/Sex: B6C3F1/FEMALE, Route: INHALATION, Dose: 0, 5000, 10000 PPM IN AIR 6H/D 5D/WK FOR 103 WK (STUDY DURATION: 104 WK), Dose: 0, 5000, 10000 PPM IN AIR 6H/D 5D/WK FOR 103 WK (STUDY DURATION: 104 WK)): inactive; negative
carcinogen call (Species: MOUSE, Strain/Sex: B6C3F1/MALE, Route: INHALATION, Dose: 0, 5000, 10000 PPM IN AIR 6H/D 5D/WK FOR 103 WK (STUDY DURATION: 104 WK), Dose: 0, 5000, 10000 PPM IN AIR 6H/D 5D/WK FOR 103 WK (STUDY DURATION: 104 WK)): inactive; negative
carcinogen call (Species: MOUSE, Strain/Sex: SWISS/FEMALE, Route: INHALATION, Dose: 0, 200, 1000, 5000 PPM 7 HR/D, 5D/WK FOR 78 WK (STUDY DURATION: LIFESPAN), Dose: 0, 200, 1000, 5000 PPM 7 HR/D, 5D/WK FOR 78 WK (STUDY DURATION: LIFESPAN)): inactive; negative
carcinogen call (Species: MOUSE, Strain/Sex: SWISS/MALE, Route: INHALATION, Dose: 0, 200, 1000, 5000 PPM 7 HR/D, 5D/WK FOR 78 WK (STUDY DURATION: LIFESPAN), Dose: 0, 200, 1000, 5000 PPM 7 HR/D, 5D/WK FOR 78 WK (STUDY DURATION: LIFESPAN)): inactive; negative
carcinogen call (Species: RAT, Strain/Sex: F344/FEMALE, Route: INHALATION, Dose: 0, 5000, 10000 PPM IN AIR 6H/D 5D/WK FOR 103 WK (STUDY DURATION: 104 WK), Dose: 0, 5000, 10000 PPM IN AIR 6H/D 5D/WK FOR 103 WK (STUDY DURATION: 104 WK)): inactive; negative
carcinogen call (Species: RAT, Strain/Sex: F344/MALE, Route: INHALATION, Dose: 0, 5000, 10000 PPM IN AIR 6H/D 5D/WK FOR 103 WK (STUDY DURATION: 104 WK), Dose: 0, 5000, 10000 PPM IN AIR 6H/D 5D/WK FOR 103 WK (STUDY DURATION: 104 WK)): inactive; negative
carcinogen call (Species: RAT, Strain/Sex: SPRAGUE-DAWLEY/FEMALE, Route: INHALATION, Dose: 0, 200, 1000, 5000 PPM 7 HR/D, 5D/WK FOR 104 WK (STUDY DURATION: LIFESPAN), Dose: 0, 200, 1000, 5000 PPM 7 HR/D, 5D/WK FOR 104 WK (STUDY DURATION: LIFESPAN)): inactive; negative
carcinogen call (Species: RAT, Strain/Sex: SPRAGUE-DAWLEY/FEMALE, Route: INHALATION, Dose: 0, 200, 1000, 5000 PPM IN AIR 7 HR/D 5 D/WK FOR 104 WK (STUDY DURATION: LIFETIME), Dose: 0, 200, 1000, 5000 PPM IN AIR 7 HR/D 5 D/WK FOR 104 WK (STUDY DURATION: LIFETIME), Tumor Site: Type of Lesion: [BRAIN WAS ONLY SITE EVALUATED]): inactive; negative
carcinogen call (Species: RAT, Strain/Sex: SPRAGUE-DAWLEY/MALE, Route: INHALATION, Dose: 0, 200, 1000, 5000 PPM 7 HR/D, 5D/WK FOR 104 WK (STUDY DURATION: LIFESPAN), Dose: 0, 200, 1000, 5000 PPM 7 HR/D, 5D/WK FOR 104 WK (STUDY DURATION: LIFESPAN)): inactive; negative
carcinogen call (Species: RAT, Strain/Sex: SPRAGUE-DAWLEY/MALE, Route: INHALATION, Dose: 0, 200, 1000, 5000 PPM IN AIR 7 HR/D 5 D/WK FOR 104 WK (STUDY DURATION: LIFETIME), Dose: 0, 200, 1000, 5000 PPM IN AIR 7 HR/D 5 D/WK FOR 104 WK (STUDY DURATION: LIFETIME), Tumor Site: Type of Lesion: [BRAIN WAS ONLY SITE EVALUATED]): inactive; negative

Cc1ccc([N+]#N)cc1
carcinogen call (Species: MOUSE, Strain/Sex: SWISS/FEMALE, Route: SUBCUTANEOUS, Dose: 0, 50 UG/G 1/WK FOR 16 OR 19 WK (STUDY DURATION: 140 WK), Tumor Site: Type of Lesion: SUBCUTANEOUS TISSUE: TUMOR, SKIN: TUMOR): active; positive
carcinogen call (Species: MOUSE, Strain/Sex: SWISS/MALE, Route: SUBCUTANEOUS, Dose: 0, 50 UG/G 1/WK FOR 16 OR 19 WK (STUDY DURATION: 140 WK), Tumor Site: Type of Lesion: SUBCUTANEOUS TISSUE: TUMOR): active; positive

Cc1ccc2c3c(cccc13)-c1ccccc1-2
carcinogen call (Species: MOUSE, Strain/Sex: CD-1/FEMALE, Route: INTRAPERITONEAL, Dose: 0, 3.46, 17.3 UMOL (TOTAL DOSE) IN DMSO ADMINISTERED ON DAYS 1,8, AND 15 OF LIFE (STUDY DURATION: 52 WK), Dose: 0, 3.46, 17.3 UMOL (TOTAL DOSE) IN DMSO ADMINISTERED ON DAYS 1,8, AND 15 OF LIFE (STUDY DURATION: 52 WK)): inactive; negative
carcinogen call (Species: MOUSE, Strain/Sex: CD-1/MALE, Route: INTRAPERITONEAL, Dose: 0, 3.46, 17.3 UMOL (TOTAL DOSE) IN DMSO ADMINISTERED ON DAYS 1,8, AND 15 OF LIFE (STUDY DURATION: 52 WK), Dose: 0, 3.46, 17.3 UMOL (TOTAL DOSE) IN DMSO ADMINISTERED ON DAYS 1,8, AND 15 OF LIFE (STUDY DURATION: 52 WK), Tumor Site: Type of Lesion: LIVER: TUMORS): active; positive

Cc1cc(-c2ccc(N/N=C3\C=Cc4c(S(=O)(=O)O)cc(S(=O)(=O)O)c(N)c4C3=O)c(C)c2)ccc1N/N=C1\C=Cc2c(S(=O)(=O)O)cc(S(=O)(=O)O)c(N)c2C1=O
carcinogen call (Species: RAT, Route: INTRAPERITONEAL, Tumor Site: Type of Lesion: LIVER): active; positive

O=C(O)c1ccc(N=Nc2ccc(O)c(C(=O)O)c2)cc1
carcinogen call (Species: MOUSE, Strain/Sex: NMRI/FEMALE, Route: ORAL, Dose: 0, 100, 300, 900 MG/KG BW/D IN DIET FOR 107 WK (HIGH DOSE INCREASED TO 1800 MG/KG BW FROM WK 21) (STUDY DURATION: 107 WK, Dose: 0, 100, 300, 900 MG/KG BW/D IN DIET FOR 107 WK (HIGH DOSE INCREASED TO 1800 MG/KG BW FROM WK 21) (STUDY DURATION: 107 WK): inactive; negative
carcinogen call (Species: MOUSE, Strain/Sex: NMRI/MALE, Route: ORAL, Dose: 0, 100, 300, 900 MG/KG BW/D IN DIET FOR 120 WK (HIGH DOSE INCREASED TO 1800 MG/KG BW FROM WK 21) (STUDY DURATION: 120 WK, Dose: 0, 100, 300, 900 MG/KG BW/D IN DIET FOR 120 WK (HIGH DOSE INCREASED TO 1800 MG/KG BW FROM WK 21) (STUDY DURATION: 120 WK): inactive; negative
carcinogen call (Species: RAT, Strain/Sex: SPRAGUE-DAWLEY/MALE, Route: ORAL, Dose: 0, 300, 900, 2700 MG/KG BW/D IN DIET FOR 118 WK (HIGH DOSE REDUCED TO 1800 MG/KG BW FROM WK 68) (STUDY DURATION: 118 WK), Dose: 0, 300, 900, 2700 MG/KG BW/D IN DIET FOR 118 WK (HIGH DOSE REDUCED TO 1800 MG/KG BW FROM WK 68) (STUDY DURATION: 118 WK)): inactive; negative
carcinogen call (Species: RAT, Strain/Sex: SPRAGUE/DAWLEY/FEMALE, Route: ORAL, Dose: 0, 300, 900, 2700 MG/KG BW/D IN DIET FOR 119 WK (HIGH DOSE REDUCED TO 1800 MG/KG BW FROM WK 68) (STUDY DURATION: 119 WK), Dose: 0, 300, 900, 2700 MG/KG BW/D IN DIET FOR 119 WK (HIGH DOSE REDUCED TO 1800 MG/KG BW FROM WK 68) (STUDY DURATION: 119 WK)): inactive; negative

CN(C)CCN(Cc1ccccc1)c1ccccn1
carcinogen call (Species: RAT, Strain/Sex: SPRAGUE-DAWLEY/FEMALE, Route: ORAL, Dose: 0, 500, 1000 PPM IN DRINKING WATER 5D/WK FOR LIFE (STUDY DURATION: 493-754 D), Dose: 0, 500, 1000 PPM IN DRINKING WATER 5D/WK FOR LIFE (STUDY DURATION: 493-754 D)): inactive; negative
carcinogen call (Species: RAT, Strain/Sex: SPRAGUE-DAWLEY/MALE, Route: ORAL, Dose: 0, 500, 1000 PPM IN DRINKING WATER 5D/WK FOR LIFE (STUDY DURATION: 529-600 D), Dose: 0, 500, 1000 PPM IN DRINKING WATER 5D/WK FOR LIFE (STUDY DURATION: 529-600 D)): inactive; negative

O=Nc1ccc2ccccc2c1
carcinogen call (Species: MOUSE, Strain/Sex: SWISS/MALE, Route: SUBCUTANEOUS, Dose: 100 UG IN GELATIN ON FIRST, THIRD AND FIFTH D OF LIFE, Tumor Site: Type of Lesion: LIVER: HEPATOMA): active; positive

O=C(CO)[C@@H](O)[C@H](O)[C@H](O)CO
carcinogen call (Species: RAT, Strain/Sex: SPRAGUE-DAWLEY/MALE, Route: ORAL, Dose: 0, 120 G/L IN DRINKING WATER AD LIBITUM FOR 30 WK (STUDY DURATION: 501 D)): inactive; negative

Cc1ccc([N+](=O)[O-])cc1N
carcinogen call (Species: MOUSE, Strain/Sex: B6C3F1/FEMALE, Route: ORAL, Dose: 0, 0.12, 0.23% OF DIET, TWA, Dose: 0, 0.12, 0.23% OF DIET, TWA, Tumor Site: Type of Lesion: LIVER: HEPATOCELLULAR CARCINOMA, BLOOD VESSELS: HEMANGIOSARCOMA): active; positive
carcinogen call (Species: MOUSE, Strain/Sex: B6C3F1/MALE, Route: ORAL, Dose: 0, 0.12, 0.23% OF DIET, TWA, Dose: 0, 0.12, 0.23% OF DIET, TWA, Tumor Site: Type of Lesion: LIVER: HEPATOCELLULAR CARCINOMA, BLOOD VESSELS: HEMANGIOSARCOMA OR HEMANGIOMA): active; positive
carcinogen call (Species: RAT, Strain/Sex: F344/FEMALE, Route: ORAL, Dose: 0, 0.005, 0.01% OF DIET, TWA, Dose: 0, 0.005, 0.01% OF DIET, TWA): inactive; negative
carcinogen call (Species: RAT, Strain/Sex: F344/MALE, Route: ORAL, Dose: 0, 0.005, 0.01% OF DIET, TWA, Dose: 0, 0.005, 0.01% OF DIET, TWA): inactive; negative
